# US11590129B2, “Combination therapy with an antitumor alkaloid” (PHARMA MAR, S.A., priority 2010, dated 2023)
# What was measured:
# [1] = tested on: HT-29 human colon adenocarcinoma cell line; experiment: cells
# Procedure, shortened: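 HT-29 cells (5,000/well) were attached for 24 h, then exposed to vehicle or compounds for 72 h. Viability was read by MTT reduction, with 8 h MTT at 37° C and formazan dissolved in DMSO. Values are % of control cell growth.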
# [2] = tested on: A673 human rhabdomyosarcoma cell line; experiment: cells
# Procedure, shortened: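 A673 cells seeded at 5,000 per well, grown 24 h drug-free, then exposed to compounds for 72 h. Viability by MTT reduction (8 h, 37 °C), formazan dissolved in DMSO. Results expressed as percentage of control cell growth.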
# [3] = tested on: SK-MEL-2 human melanoma cell line; experiment: cells
# Experimental: (§1) a. […] Briefly, cells were harvested and seeded in 96 well microtiter plates at a density of 5,000 cells in 150 μL of culture medium and incubated for 24 hours in drug-free medium before treatment with vehicle alone or test compounds for 72 h.
# (§2) The cytotoxic effect was measured by the MTT reduction assay, in which 3-(4,5-Dimethylthiazol-2-yl)-2,5-diphenyltetrazolium bromide, a tetrazole, which is reduced to purple formazan in the mitochondria of living cells, was used. MTT (50 μL of 1 mg/mL stock solution) was added to the wells and incubated for 8 hours at 37° C. until formazan crystals were formed. After gently removing the culture medium, DMSO was added to dissolve the insoluble purple formazan product into a colored solution. […] Results were expressed as percentage of control cell growth.
# (§3) b. In a second set of assays, A549 human tumor cells were incubated with PM01183 in combination with each of the agents mentioned above.
# (§4) As a visual aid, response values were plotted on a scatter plot with dose ratios given on the x-axis and % response values on the y-axis. […] In cases where response values at the two endpoints were approximately equivalent, points lying above or below this predicted line of additivity could be interpreted as representing antagonistic or synergistic drug interaction, respectively.
# (§5) Additional serial dilutions were prepared in serum-free culture medium to achieve a final 4× concentration. Aliquots of 50 μL of each diluted compound were added per well.
# SK-MEL-2 was the human melanoma cell line selected for this assay.
# [4] = tested on: IGROV-1 human ovarian adenocarcinoma cell line; experiment: cells
# [5] = tested on: PC-3 human prostate cancer cell line; experiment: cells
# Procedure, shortened: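 Cells seeded at 5,000/well, grown 24 h drug-free, then exposed to vehicle or test compounds for 72 h. Viability by MTT reduction (8 h, 37 °C), formazan dissolved in DMSO. Values given as percentage of control cell growth.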
# [6] = tested on: JURKAT human leukemia cell line; experiment: cells
# Experimental: as §5
# (§6) JURKAT and MOLT-4 were the human leukemia cell lines selected for this assay, which were obtained from the American Type Culture Collection (ATCC).
# (§7) Briefly, cells were seeded in 96 well microtiter plates at a density of 50000 cells per well in 150 μL of culture medium and incubated for 4-6 hours in drug-free medium before treatment with vehicle alone or test compounds for 72 hours.
# (§8) After incubation, the cytotoxic effect was evaluated using a MTT reduction assay. 50 μL of MTT solution (1 mg/mL) were added to the wells and incubated for 15-17 hours at 37° C. until formazan crystals were formed. After gently removing the culture medium, DMSO was added to dissolve the insoluble purple formazan product into a colored solution. […] Results were expressed as percentage of control cell growth. The EC50 values (half-maximal effective concentration) used for the combination studies were calculated using Prism v5.02 software (GraphPad). EC50 was expressed as molar concentration and represented the mean of at least three independent assays.
# (§9) b. In a second set of experiments, concentration-response curves for the agents tested, both alone and in two-drug combination, were performed, using the same methodology described in the previous paragraph.
# (§10) Using these starting concentrations, constant serial dilutions were performed to generate the concentration-response curves for each set of drugs, alone and in combination.
# (§11) Based on this equation, the term “combination index” (CI) is used as a quantitative measure of the degree of drug interactions. […] CI values were calculated by solving the equation for different values of fa (i.e., for different degrees of cell groth inhibition).
# (§12) Data were analyzed using CalcuSyn software (Biosoft, Cambridge, UK). For statistical analysis and graphs Prism software (GraphPad, San Diego, USA) was used. All the results represent the mean of at least three independent experiments.
# [7] = tested on: PANC-1 human pancreatic carcinoma cell line; experiment: cells
# Experimental: as §1, §2, §3, §4, §5
# PANC-1 was the human pancreatic carcinoma cell line selected for this assay.
# [8] = tested on: U87-MG human glioblastoma cell line; experiment: cells
# [9] = tested on: RXF-393 human kidney carcinoma cell line; experiment: cells
# [10] = tested on: MDA-MB-231 human breast adenocarcinoma cell line; experiment: cells
# [11] = tested on: A549 human lung carcinoma cell line; experiment: MTT cytotoxicity assay in A549 cells: IC50 of single agents and combinations with PM01183; assay type: cell-based; details: Homo sapiens; A549, 72 hours drug exposure, MTT; read-out: IC50
# Procedure, shortened: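 A549 cells seeded at 5,000 per well, grown 24 h drug-free, then exposed to vehicle or compounds for 72 h, either singly or combined with PM01183. Combination responses plotted against dose ratio relative to an additivity line.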
# [12] = tested on: HepG2 human hepatocellular liver carcinoma cell line; experiment: MTT cytotoxicity assay in HepG2 cells: IC50 of single agents and combinations with PM01183; assay type: cell-based; details: Homo sapiens; HepG2, 72 hours drug exposure, MTT; read-out: IC50
# [13] = tested on: U-937 human lymphoma cell line; experiment: cells
# Experimental: as §7, §8, §10, §11, §12, §5
# (§13) In the second set of assays, concentration-response curves for the agents tested, both alone and in two-drug combination, were performed.
# [14] = tested on: RAMOS human lymphoma cell line; experiment: cells
# Experimental: as §7, §8, §10, §11, §12, §5, §13
# [15] = tested on: HGC-27 human gastric carcinoma cell line; experiment: cells
# [16] = tested on: MOLT-4 human leukemia cell line; experiment: cells; details: MOLT-4, 72 hours exposure, MTT
# Experimental: as §5, §6, §7, §8, §9, §10, §11, §12
# [17] = HT-29, 72 hours drug exposure, MTT
# [18] = A673, 72 hours drug exposure, MTT
# [19] = IGROV-1, 72 hours drug exposure, MTT
# [20] = U87-MG, 72 hours drug exposure, MTT
# [21] = RXF-393, 72 hours drug exposure, MTT
# [22] = HGC-27, 72 hours drug exposure, MTT
compound,measurement,setting,value
"COc1cccc2c1C(=O)c1c(O)c3c(c(O)c1C2=O)C[C@@](O)(C(C)=O)C[C@@H]3O[C@H]1C[C@H](N)[C@H](O)[C@H](C)O1 [Daunorubicin, daunorubicin]",IC50,"[1]; Homo sapiens, HT-29, 72 h",532 nM
same,IC50,"[2]; Homo sapiens, A673, 72 h",520 nM
same,IC50,"[3]; Homo sapiens, SK-MEL-2, 72 h",177 nM
same,IC50,"[4]; Homo sapiens, IGROV-1, 72 h",355 nM
same,IC50,"[5]; Homo sapiens, PC-3, 72 h",1150 nM
same,EC50,"[6]; Homo sapiens, Jurkat, 72 h",792 nM
same,IC50,"[7]; Homo sapiens, PANC-1, 72 h",869 nM
same,IC50,"[8]; Homo sapiens, U-87 MG, 72 h",284 nM
same,IC50,"[9]; Homo sapiens, RXF 393, 72 h",620 nM
same,IC50,"[10]; Homo sapiens, MDA-MB-231, 72 h",370 nM
same,IC50,[11],355 nM
same,IC50,[12],300 nM
same,EC50,"[13]; Homo sapiens, U-937, 72 h",304 nM
same,EC50,"[14]; Homo sapiens, Ramos, 72 h",315 nM
same,IC50,"[15]; Homo sapiens, HGC-27, 72 h",372 nM
aplidine,IC50,[1]; [17],1.76 nM
same,IC50,[2]; [18],2.16 nM
same,IC50,[4]; [19],1.5 nM
same,EC50,"[6]; JURKAT, 72 hours exposure, MTT",13.8 nM
same,EC50,[16],1.27 nM
same,IC50,[8]; [20],3.8 nM
same,IC50,[9]; [21],1.5 nM
same,IC50,[15]; [22],9 nM
"C/C=C1\NC(=O)[C@H](Cc2ccccc2)NC(=O)[C@@H](C(C)C)NC(=O)[C@@H]([C@@H](C)CC)NC(=O)[C@H](NC(=O)[C@H](NC(=O)[C@H](CCCN)NC(=O)[C@H]2CCCN2C(=O)[C@H](NC(=O)[C@@H](NC(=O)[C@@H](NC(=O)[C@H](NC(=O)CC[C@@H](C)CC)C(C)C)[C@@H](C)O)C(C)C)C(C)C)[C@@H](C)CC)[C@@H](C)OC(=O)[C@H](C(C)C)NC1=O [PM02734, (4S)-MeHex-D-Val-L-Thr-L-Val-D-Val-D-Pro-L-Orn-D-allo-Ile-cyclo(D-allo-Thr-D-allo-Ile-D-Val-L-Phe-Z-Dhb-L-Val)]",IC50,[1]; [17],214 nM
same,IC50,[2]; [18],3600 nM
same,IC50,"[3]; SK-MEL-2, 72 hours drug exposure, MTT",1760 nM
same,IC50,[4]; [19],333 nM
same,IC50,[5]; 72 h,540 nM
same,EC50,"[6]; JURKAT, 72 hours exposure, MTT",5500 nM
same,EC50,[16],14400 nM
same,IC50,"[7]; PANC-1, 72 hours drug exposure, MTT",9000 nM
same,IC50,[8]; [20],4080 nM
same,IC50,[9]; [21],5000 nM
same,IC50,[10]; 72 h,2800 nM
same,EC50,"[13]; U-937 tumor cell line, single agent",6850 nM
same,EC50,"[14]; RAMOS, 72 hours exposure, MTT",13600 nM
same,IC50,[15]; [22],950 nM
